Measured values published in patent US10112929B2, “Lactams as inhibitors of rock” (BRISTOL-MYERS SQUIBB COMPANY, priority 2015, dated 2018).
pIC50: −log10 of the molar value.

Target: ROCK2 (Homo sapiens (Human), UniProt O75116)
Assay: biochemical
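Further: rho kinase enzyme reaction halted with EDTA, phospho- and non-phospho peptide separated for read-out, kinase activity inhibition derived across a dose-response series, DMSO under 2%.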

ROCK2, sequence (O75116 whole entry, species assumed): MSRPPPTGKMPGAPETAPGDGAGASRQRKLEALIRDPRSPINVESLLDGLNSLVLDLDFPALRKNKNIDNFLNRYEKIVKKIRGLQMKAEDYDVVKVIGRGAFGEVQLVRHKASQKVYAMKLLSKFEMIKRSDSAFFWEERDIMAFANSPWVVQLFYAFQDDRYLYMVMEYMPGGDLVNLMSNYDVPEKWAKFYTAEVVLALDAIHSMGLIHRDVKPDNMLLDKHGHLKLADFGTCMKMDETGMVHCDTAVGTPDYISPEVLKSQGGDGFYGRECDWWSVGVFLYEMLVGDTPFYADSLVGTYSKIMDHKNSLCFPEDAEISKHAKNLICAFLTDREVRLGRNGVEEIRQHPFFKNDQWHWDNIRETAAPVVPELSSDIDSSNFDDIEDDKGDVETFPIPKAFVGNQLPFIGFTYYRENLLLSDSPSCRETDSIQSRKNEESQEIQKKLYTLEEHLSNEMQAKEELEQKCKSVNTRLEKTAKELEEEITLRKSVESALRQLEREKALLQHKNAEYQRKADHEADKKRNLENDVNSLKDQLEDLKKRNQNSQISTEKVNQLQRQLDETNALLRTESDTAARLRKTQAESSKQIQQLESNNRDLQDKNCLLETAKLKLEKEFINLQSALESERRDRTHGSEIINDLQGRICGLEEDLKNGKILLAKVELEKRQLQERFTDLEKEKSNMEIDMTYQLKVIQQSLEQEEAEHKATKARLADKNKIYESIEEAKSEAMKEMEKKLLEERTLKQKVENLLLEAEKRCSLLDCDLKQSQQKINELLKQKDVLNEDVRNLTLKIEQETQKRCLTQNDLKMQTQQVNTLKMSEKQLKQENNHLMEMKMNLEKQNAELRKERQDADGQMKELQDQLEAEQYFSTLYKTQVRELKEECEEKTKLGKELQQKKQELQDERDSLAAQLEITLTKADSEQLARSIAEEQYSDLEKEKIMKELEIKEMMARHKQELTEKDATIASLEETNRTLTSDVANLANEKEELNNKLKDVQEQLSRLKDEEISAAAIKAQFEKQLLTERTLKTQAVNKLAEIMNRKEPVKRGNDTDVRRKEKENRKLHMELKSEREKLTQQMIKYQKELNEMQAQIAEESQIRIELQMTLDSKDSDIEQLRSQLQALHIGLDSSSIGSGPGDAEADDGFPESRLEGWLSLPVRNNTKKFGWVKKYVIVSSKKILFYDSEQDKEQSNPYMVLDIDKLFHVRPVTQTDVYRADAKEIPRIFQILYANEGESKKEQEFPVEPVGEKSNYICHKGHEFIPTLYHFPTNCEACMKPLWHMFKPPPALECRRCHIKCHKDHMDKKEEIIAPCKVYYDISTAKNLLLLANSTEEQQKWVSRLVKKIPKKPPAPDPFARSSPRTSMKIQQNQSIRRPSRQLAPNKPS

SMILES | pIC50
COc1cc(F)cc(NC2CCN(c3ccc(-c4cn[nH]c4)c(C#N)c3)C2=O)c1 (single isomer, unassigned) [Example 375, 5-(3-((3-fluoro-5-methoxyphenyl)amino)-2-oxopyrrolidin-1-yl)-2-(1H-pyrazol-4-yl)benzonitrile] | 7.00 to 8.00
CC(C)Oc1cccc(NC2CCN(c3ccc(-c4cn[nH]c4)cc3)C2=O)c1 (stereo not drawn) [Example 10, 1-(4-(1H-pyrazol-4-yl)phenyl)-3-((3-isopropoxyphenyl)amino)pyrrolidin-2-one] | 7.00 to 8.00
COc1ccc(F)cc1NC1CCN(c2ccc(-c3cn[nH]c3)cc2)C1=O (stereo not drawn) [Example 5, 1-(4-(1H-pyrazol-4-yl)phenyl)-3-((5-fluoro-2-methoxyphenyl)amino)pyrrolidin-2-one] | 7.00 to 8.00
COc1cc(NC2CCN(c3ccc(-c4cn[nH]c4)cc3)C2=O)ccc1F (single isomer, unassigned) [Example 18, 1-(4-(1H-pyrazol-4-yl)phenyl)-3-((4-fluoro-3-methoxyphenyl)amino)pyrrolidin-2-one] | > 8.00
COc1nc(N2CCC(N3CCOc4ccccc43)C2=O)ccc1-c1cn[nH]c1 (single isomer, unassigned) [Example 230, 3-(2H-benzo[b][1,4]oxazin-4(3H)-yl)-1-(6-methoxy-5-(1H-pyrazol-4-yl)pyridin-2-yl)pyrrolidin-2-one] | > 8.00
COc1cc(NC2CCN(c3ccc(-c4cn[nH]c4)cc3)C2=O)ccc1F (single isomer, unassigned) [Example 17, 1-(4-(1H-pyrazol-4-yl)phenyl)-3-((4-fluoro-3-methoxyphenyl)amino)pyrrolidin-2-one] | 7.00 to 8.00
COc1c(F)cccc1NC1CCN(c2ccc(-c3cn[nH]c3)c(F)c2)C1=O (single isomer, unassigned) [Example 337, 3-((3-fluoro-2-methoxyphenyl)amino)-1-(3-fluoro-4-(1H-pyrazol-4-yl)phenyl) pyrrolidin-2-one] | 5.66 to 7.00
Cc1cccc(NC2CCN(c3ccc(-c4cn[nH]c4)cc3)C2=O)c1 (stereo not drawn) [Example 2, 1-(4-(1H-pyrazol-4-yl)phenyl)-3-(m-tolylamino)pyrrolidin-2-one] | 7.00 to 8.00
CCc1nc(N2CCC(Nc3cc(F)cc(OC)c3)C2=O)ccc1-c1cn[nH]c1 (single isomer, unassigned) [Example 315, 1-(6-ethyl-5-(1H-pyrazol-4-yl)pyridin-2-yl)-3-((3-fluoro-5-methoxyphenyl)amino) pyrrolidin-2-one] | 7.00 to 8.00
COc1nc(N2CCC(Nc3ccc(F)c(OCC4CC4)c3)C2=O)ccc1-c1cn[nH]c1 (single isomer, unassigned) [Example 216, 3-((3-(cyclopropylmethoxy)-4-fluorophenyl)amino)-1-(6-methoxy-5-(1H-pyrazol-4-yl)pyridin-2-yl)pyrrolidin-2-one] | > 8.00
COc1cccc(NC2CCN(c3ccc(-c4ccnc(N)c4)cc3)C2=O)c1 (single isomer, unassigned) [Example 76, 1-(4-(2-aminopyridin-4-yl)phenyl)-3-((3-methoxyphenyl)amino) pyrrolidin-2-one] | 5.66 to 7.00
CCc1nc(N2CCC(Nc3ccc(F)c(OC)c3)C2=O)ccc1-c1cn[nH]c1 (single isomer, unassigned) [Example 318, 1-(6-ethyl-5-(1H-pyrazol-4-yl)pyridin-2-yl)-3-((4-fluoro-3-methoxyphenyl)amino) pyrrolidin-2-one] | 7.00 to 8.00
COc1cc(F)cc(NC2CCN(c3ccc(-c4cn[nH]c4)nc3)C2=O)c1 (single isomer, unassigned) [Example 302, 1-(6-(1H-pyrazol-4-yl)pyridin-3-yl)-3-((3-fluoro-5-methoxyphenyl)amino)pyrrolidin-2-one] | > 8.00
COc1nc(N2CCC(Nc3cccc(C#N)c3)C2=O)ccc1-c1cn[nH]c1 (racemic) [Example 257, 3-((1-(6-methoxy-5-(1H-pyrazol-4-yl)pyridin-2-yl)-2-oxopyrrolidin-3-yl)amino)benzonitrile] | > 8.00
CNc1nc(N2CCC(Nc3cc(F)cc(OC)c3)C2=O)ccc1-c1cn[nH]c1 (single isomer, unassigned) [Example 252, 3-((3-fluoro-5-methoxyphenyl)amino)-1-(6-(methylamino)-5-(1H-pyrazol-4-yl)pyridin-2-yl)pyrrolidin-2-one] | > 8.00
COc1nc(N2CCC(Nc3ccc(F)c(OCC4CC4)c3)C2=O)ccc1-c1cn[nH]c1 (single isomer, unassigned) [Example 217, 3-((3-(cyclopropylmethoxy)-4-fluorophenyl)amino)-1-(6-methoxy-5-(1H-pyrazol-4-yl)pyridin-2-yl)pyrrolidin-2-one] | 7.00 to 8.00
CCOc1cc(N2CCC(Nc3cccc(OC)c3)C2=O)ccc1-c1cn[nH]c1 (single isomer, unassigned) [Example 34, 1-(3-ethoxy-4-(1H-pyrazol-4-yl)phenyl)-3-((3-methoxyphenyl)amino)pyrrolidin-2-one] | > 8.00
COc1nc(N2CCC(N3CC[C@@H](N(C)C)C3)C2=O)ccc1-c1cn[nH]c1 (mixture of isomers) [Example 293, (3R)-3-(dimethylamino)-1′-(6-methoxy-5-(1H-pyrazol-4-yl)pyridin-2-yl)-[l,3′-bipyrrolidin]-2′-one] | 5.66 to 7.00
COc1cccc(NC2CCN(c3ccc(-c4cn[nH]c4)c(C(O)C(F)(F)F)c3)C2=O)c1 (racemic) [Example 348, 1-(4-(1H-pyrazol-4-yl)-3-(2,2,2-trifluoro-1-hydroxyethyl)phenyl)-3-((3-methoxyphenyl)amino)pyrrolidin-2-one] | 5.66 to 7.00
COc1cc(NC2CCN(c3cc(C)c(-c4cn[nH]c4)cn3)C2=O)ccc1F (single isomer, unassigned) [Example 209, 3-((4-fluoro-3-methoxyphenyl)amino)-1-(4-methyl-5-(1H-pyrazol-4-yl)pyridin-2-yl)pyrrolidin-2-one] | 5.66 to 7.00
CCc1cc(N2CCC(Nc3cccc(OCC4CC4)c3)C2=O)ccc1-c1cn[nH]c1 (single isomer, unassigned) [Example 247, 3-((3-(cyclopropylmethoxy)phenyl)amino)-1-(3-ethyl-4-(1H-pyrazol-4-yl)phenyl)pyrrolidin-2-one] | 7.00 to 8.00
CCc1cc(N2CCC(Nc3cccc(OC)c3)C2=O)ncc1-c1cn[nH]c1 (single isomer, unassigned) [Example 203, 1-(4-ethyl-5-(1H-pyrazol-4-yl)pyridin-2-yl)-3-((3-methoxyphenyl)amino) pyrrolidin-2-one] | 5.66 to 7.00
COc1cc(NC2CCN(c3ccc(-c4cn[nH]c4)c(OCCN(C)C)c3)C2=O)ccc1F (racemic) [Example 346, 1-(3-(2-(dimethylamino)ethoxy)-4-(1H-pyrazol-4-yl)phenyl)-3-((4-fluoro-3-methoxyphenyl)amino)pyrrolidin-2-one] | 5.66 to 7.00
O=C1C(NCc2ccccc2)CCN1c1ccc(-c2cn[nH]c2)cc1 (stereo not drawn) [Example 57, 1-(4-(1H-pyrazol-4-yl)phenyl)-3-(benzylamino)pyrrolidin-2-one] | 5.66 to 7.00

More lines, now with the values ahead:

pIC50 | SMILES
7.00 to 8.00 | Cc1nc(N2CCC(Nc3cccc(OCC4CC4)c3)C2=O)ccc1-c1cn[nH]c1 (single isomer, unassigned) [Example 190, 3-((3-(cyclopropylmethoxy)phenyl)amino)-1-(6-methyl-5-(1H-pyrazol-4-yl)pyridin-2-yl)pyrrolidin-2-one]
5.66 to 7.00 | COc1cccc(NC2CCN(c3ccc(-c4cn[nH]c4)c(C#N)c3)C2=O)c1 (single isomer, unassigned) [Example 377, 5-(3-((3-methoxyphenyl)amino)-2-oxopyrrolidin-1-yl)-2-(1H-pyrazol-4-yl)benzonitrile]
7.00 to 8.00 | O=C1C(Nc2cccc(OC(F)F)c2)CCN1c1ccc(-c2cn[nH]c2)cn1 (single isomer, unassigned) [Example 322, 1-(5-(1H-pyrazol-4-yl)pyridin-2-yl)-3-((3-(difluoromethoxy)phenyl)amino) pyrrolidin-2-one]
7.00 to 8.00 | COc1cccc(N(C)C2CCN(c3ccc(-c4cn[nH]c4)cc3)C2=O)c1 (single isomer, unassigned) [Example 30, 1-(4-(1H-pyrazol-4-yl)phenyl)-3-((3-methoxyphenyl)(methyl)amino)pyrrolidin-2-one]
5.66 to 7.00 | COc1c(F)cccc1NC1CCN(c2ccc(-c3cn[nH]c3)cc2)C1=O (single isomer, unassigned) [Example 16, 1-(4-(1H-pyrazol-4-yl)phenyl)-3-((3-fluoro-2-methoxyphenyl)amino)pyrrolidin-2-one]
> 8.00 | COc1cccc(NC2CCN(c3ccc(-c4cn[nH]c4)c(Cl)c3)C2=O)c1 (single isomer, unassigned) [Example 164, 1-(3-chloro-4-(1H-pyrazo1-4-yl)phenyl)-3 ((3-methoxyphenyl)amino)pyrrolidin-2-one]
7.00 to 8.00 | COc1nc(N2CCC(N3CCOC[C@H]3C)C2=O)ccc1-c1cn[nH]c1 (mixture of isomers) [Example 274, 1-(6-methoxy-5-(1H-pyrazol-4-yl)pyridin-2-yl)-3-((R)-3-methylmorpholino) pyrrolidin-2-one]
> 8.00 | COc1cc(F)cc(NC2CCN(c3ccc(-c4cn[nH]c4)cc3)C2=O)c1 (single isomer, unassigned) [Example 26, 1-(4-(1H-pyrazol-4-yl)phenyl)-3-((3-fluoro-5-methoxyphenyl)amino)pyrrolidin-2-one]
7.00 to 8.00 | O=C1[C@H](N2CCCc3ccccc32)CCN1c1ccc(-c2cn[nH]c2)cc1 [Example 394, (R)-1-(4-(1H-pyrazol-4-yl)phenyl)-3-(3,4-dihydroquinolin-1(2H)-yl)pyrrolidin-2-one]
7.00 to 8.00 | O=C1C(c2ccccc2F)CCN1c1ccc(-c2cn[nH]c2)cc1 (stereo not drawn) [Example 104, 1-(4-(1H-pyrazol-4-yl)phenyl)-3-(2-fluorophenyl)pyrrolidin-2-one]
> 8.00 | COc1cc(F)cc(NC2CCN(c3ccc(-c4cn[nH]c4)c(C)n3)C2=O)c1 (single isomer, unassigned) [Example 193, 3-((3-fluoro-5-methoxyphenyl)amino)-1-(6-methyl-5-(1H-pyrazol-4-yl)pyridin-2-yl)pyrrolidin-2-one]
> 8.00 | COc1nc(N2CCC(Nc3ccc4c(c3)OCO4)C2=O)ccc1-c1cn[nH]c1 (racemic) [Example 255, 3-(benzo[d][1,3]dioxol-5-ylamino)-1-(6-methoxy-5-(1H-pyrazol-4-yl)pyridin-2-yl)pyrrolidin-2-one]
